According to patent US6576811B1, “Transgenic rat with human normal type c-Ha-ras gene” (National Cancer Center Research Institute, priority 1998, dated 2003):

Key:
[1] = test system: wild type rats (non Tg rats); assay: MNU-induced mammary carcinogenesis in wild type rats (102 line); format: in vivo, rat; conditions: strain 102, 'MNU Treatment' cell '—' (probably wild rats), week 18, 13 rats
Protocol: (§1) MNU, at a dose of 50 mg/kg, was intravenously injected into Hras128 and wild type rats, at 50 days old, to perform histopathological examination of the incidence of mammary tumor and to screen the presence or absence of any point mutation of the transgene and endogenous c-Ha-ras gene.
(§2) Mammary tumor became palpable in the Hras128 strain rats, 5 weeks after MNU administration, and then multiple adenocarcinoma developed in all (100%) of the mammary glands of all the transgenic rats at week 8, but that in the wild type rats only 29.2% even at week 8 (see Table 1 and FIG. 2). In 102-strain rats, multiple adenocarcinoma was observed 16 weeks after MNU administration.

[2] = test system: Hras128 rats; assay: MNU-induced mammary carcinogenesis in Hras128 transgenic rats; format: in vivo, rat
Protocol: as §1, §2

[3] = test system: wild type rats (non Tg rats); assay: MNU-induced mammary carcinogenesis in wild type rats (128 line); format: in vivo, rat; conditions: strain 128, 'MNU Treatment' cell '—' (wild type rats per text), week 8, 24 rats
Protocol: as §1, §2

[4] = test system: human c-Ha-ras proto-oncogene (transgene); assay: Mutation analysis (RFLP, PCR-SSCP) of the transgene in carcinogen-induced tumors; conditions: MNU-induced mammary tumors, Hras128, 44 tumors examined
From the text: Single-stranded DNA confirmation polymorphism (SSCP) analysis is able to be performed according to the followings; T. Sekiya. Protein, Nucleic Acid, Enzyme, vol.
Possible mutations in exons 1 to 4 of the human Ha-ras proto-oncogene and exons 1 and 2 of the endogenous gene were examined by PCR-SSCP analysis.
RFLP analysis is able to perform according to the followings; Nagase, et al., Protein, Nucleic Acid, Enzyme, vol.

[5] = test system: Hras102 rats; assay: MNU-induced mammary carcinogenesis in 102-strain transgenic rats; format: in vivo, rat
Protocol: as §1, §2

[6] = test system: endogenous Ha-ras gene (rat); assay: Mutation analysis (PCR-SSCP) of the endogenous Ha-ras gene in carcinogen-induced tumors; conditions: MNU-induced mammary tumors, SSCP
From the text: Single-stranded DNA confirmation polymorphism (SSCP) analysis is able to be performed according to the followings; T. Sekiya. Protein, Nucleic Acid, Enzyme, vol. 41, No. 5, 539, 1996.
Possible mutations in exons 1 to 4 of the human Ha-ras proto-oncogene and exons 1 and 2 of the endogenous gene were examined by PCR-SSCP analysis. Using human or rat specific primers, only two bands appeared on the gals. With common primers (cHras21F and cHras21R) for Ha-ras exon 2 of both man and rats, four bands were detected. Human or rat specific bands were identified by signals from normal DNA of the transgenic and non-transgenic rats. DNA from T24 having a mutation in human Ha-ras of codon 12, GGC to GTC and that from pSK2 having a mutation in the codon 61, CAG to CTG, gave clearly mobility shifted bands in the assays (FIG. 4). However, a GGC to GAC mutation of the transgene enriched by PCR after RFLP analysis as described below, which was frequently observed in tumors induced by MNU in human Ha-ras proto-oncogene transgenic mice, could not be detected by SSCP -PCR analysis. In 44 tumors from Hras128 transgenic rats treated with MNU, mutations were not detected in exons 1 to 4 of the introduced human and endogenous c-Ha-ras genes under any of four SSCP conditions (at 4 or 20° C., with or without 5% glycerol) (Table 1). In contrast, a relatively high frequency (6 of 21 tumors of non-transgenic rats (28.6%) of GGA to GAA mutations in codon 12 of the endogenous Ha-ras gene was detected in mammary carcinomas of non-transgenic using PCR-SSCP analysis followed by direct sequencing (Table 1).

[7] = strain 128, MNU performed, 50 mg/kg i.v., week 8 after injection, 22 rats
[8] = strain 102, MNU performed, week 18 after injection, 23 rats

Compound: CN(N=O)C(N)=O [MNU, N-methyl-N-nitrosourea]
- No. of tumor-bearing rats [1]: 10
- No. of tumor-bearing rats (%) [1]: (76.9) %
- No. of tumor/rat [1]: 3.00 ± 2.86
- Mammary tumor became palpable, time after MNU administration ([2]; Hras128 rats, MNU 50 mg/kg i.v. at 50 days old): 5 weeks
- Sensitivity of Tg rats to MNU-induced mammary carcinogenesis ([2]; Tg rats vs wild type): very sensitive
- No. of tumor-bearing rats [2, 7]: 22
- No. of tumor/rat [2, 7]: 14.0 ± 6.42
- No. of tumor-bearing rats [3]: 7
- No. of tumor/rat [3]: 0.46 ± 0.93
- Tumors with transgene exon 2 (codon 61) mutation, number [4]: 0
- Tumors with transgene exon 3 mutation, number [4]: 0
- Tumors with transgene exon 4 mutation, number [4]: 0
- Multiple adenocarcinoma observed, time after MNU administration ([5]; 102-strain rats, MNU 50 mg/kg i.v.): 16 weeks
- No. of tumor-bearing rats [5, 8]: 20
- No. of tumor-bearing rats (%) [5, 8]: (87.0) %
- No. of tumor/rat [5, 8]: 5.83 ± 5.31
- Tumors with endogenous (rat) exon 1 mutation, number ([6]; Hras128, 44 tumors examined): 0
- Tumors with endogenous (rat) exon 2 mutation, number ([6]; Hras128, 44 tumors examined): 0
- Tumors with endogenous (rat) exon 2 mutation, number ([6]; Wild, 21 tumors examined): 0
